Experimental findings from ChEMBL document CHEMBL4330136, “Shape-based virtual screen for the discovery of novel CDK8 inhibitor chemotypes” (Bioorg Med Chem Lett, 2019) are described below.

Assay [1] has as its system SW-620. Put plainly: Cell cycle arrest in human SW620 cells assessed as accumulation at G2-phase at 15 uM after 12 to 16 hrs by propidium iodide staining based flow cytometry (reference value: 19.02%). It is filed as functional. On the technique in general: In flow cytometry, cells or beads pass a laser one at a time.
Assay [2] concerns HCT-116. Put plainly: Cell cycle arrest in human HCT116 cells assessed as accumulation at S-phase at 30 uM after 12 to 16 hrs by propidium iodide staining based flow cytometry (reference value: 55.74%). It is filed as functional.
For assay [3], the system named is SW-620. Put plainly: Cell cycle arrest in human SW620 cells assessed as accumulation at G2-phase at 30 uM after 12 to 16 hrs by propidium iodide staining based flow cytometry (reference value: 19.02%). The class given is functional.
In assay [4] the test system is HCT-116. As to the kind of experiment: Cell cycle arrest in human HCT116 cells assessed as accumulation at G1-phase at 30 uM after 12 to 16 hrs by propidium iodide staining based flow cytometry (reference value: 30.99%). It is filed as functional.
Assay [5] relates to SW-620. As to the kind of experiment: Cell cycle arrest in human SW620 cells assessed as accumulation at S-phase at 15 uM after 12 to 16 hrs by propidium iodide staining based flow cytometry (reference value: 53.91%). The class given is functional.
Assay [6] concerns HCT-116. Put plainly: Cell cycle arrest in human HCT116 cells assessed as accumulation at S-phase at 5 uM after 12 to 16 hrs by propidium iodide staining based flow cytometry (reference value: 55.74%). The class given is functional.
The test system of assay [7] is SW-620. Put plainly: Growth inhibition of human SW620 cells after 72 hrs by Celltiter-glo assay. The class given is functional, cell-based. The conditions noted are these: SW-620, 72 h. (In general: ATP-based viability assays read luminescence as a measure of living cells.)
For assay [8], the system named is SW-620. Put plainly: Cell cycle arrest in human SW620 cells assessed as accumulation at S-phase at 30 uM after 12 to 16 hrs by propidium iodide staining based flow cytometry (reference value: 53.91%). The class given is functional.
For assay [9], the system named is SW-620. As to the kind of experiment: Cell cycle arrest in human SW620 cells assessed as accumulation at G2-phase at 5 uM after 12 to 16 hrs by propidium iodide staining based flow cytometry (reference value: 19.02%). It is filed as functional.
The subject of assay [10] is HCT-116. As to the kind of experiment: Growth inhibition of human HCT116 cells after 72 hrs by Celltiter-glo assay. The class given is functional, cell-based. The conditions noted are these: HCT-116, 72 h.
Assay [11] relates to HCT-116. Put plainly: Cell cycle arrest in human HCT116 cells assessed as accumulation at S-phase at 15 uM after 12 to 16 hrs by propidium iodide staining based flow cytometry (reference value: 55.74%). The class given is functional.
Assay [12] concerns HCT-116. Put plainly: Cell cycle arrest in human HCT116 cells assessed as accumulation at G1-phase at 5 uM after 12 to 16 hrs by propidium iodide staining based flow cytometry (reference value: 30.99%). It is filed as functional.
The subject of assay [13] is HCT-116. As to the kind of experiment: Cell cycle arrest in human HCT116 cells assessed as accumulation at G2-phase at 5 uM after 12 to 16 hrs by propidium iodide staining based flow cytometry (reference value: 13.28%). It is filed as functional.
The subject of assay [14] is HCT-116. As to the kind of experiment: Cell cycle arrest in human HCT116 cells assessed as accumulation at G2-phase at 30 uM after 12 to 16 hrs by propidium iodide staining based flow cytometry (reference value: 13.28%). It is filed as functional.
The subject of assay [15] is SW-620. As to the kind of experiment: Cell cycle arrest in human SW620 cells assessed as accumulation at S-phase at 5 uM after 12 to 16 hrs by propidium iodide staining based flow cytometry (reference value: 53.91%). It is filed as functional.
For assay [16], the system named is SW-620. Put plainly: Cell cycle arrest in human SW620 cells assessed as accumulation at G1-phase at 30 uM after 12 to 16 hrs by propidium iodide staining based flow cytometry (reference value: 24.69%). It is filed as functional.
Assay [17] has as its system HCT-116. Put plainly: Cell cycle arrest in human HCT116 cells assessed as accumulation at G2-phase at 15 uM after 12 to 16 hrs by propidium iodide staining based flow cytometry (reference value: 13.28%). It is filed as functional.
Assay [18] relates to HCT-116. Put plainly: Cell cycle arrest in human HCT116 cells assessed as accumulation at G1-phase at 15 uM after 12 to 16 hrs by propidium iodide staining based flow cytometry (reference value: 30.99%). The class given is functional.
Assay [19] has as its system SW-620. Put plainly: Cell cycle arrest in human SW620 cells assessed as accumulation at G1-phase at 15 uM after 12 to 16 hrs by propidium iodide staining based flow cytometry (reference value: 24.69%). The class given is functional.
Assay [20] concerns SW-620. Put plainly: Cell cycle arrest in human SW620 cells assessed as accumulation at G1-phase at 5 uM after 12 to 16 hrs by propidium iodide staining based flow cytometry (reference value: 24.69%). The class given is functional.
The target of the next assay is CDK8/Cyclin C (Homo sapiens, UniProt P49336). Put plainly: Inhibition of kinase tracer 236 binding to recombinant full length His-tagged human CDK8/CycC expressed in baculovirus expression system preincubated for 20 mins followed by tracer addition and measured after 2 hrs by FRET-based LanthaScreen Eu kinase binding assay. (TR-FRET usually uses a lanthanide donor and a delayed reading to cut background.)

For assay [21], the system named is HCT-116. Put plainly: Induction of G1-phase to S-phase transition arrest in human HCT116 cells after 12 to 16 hrs by propidium iodide staining based flow cytometry. The class given is functional, cell-based.

CDK8/Cyclin C, sequence (P49336 whole entry): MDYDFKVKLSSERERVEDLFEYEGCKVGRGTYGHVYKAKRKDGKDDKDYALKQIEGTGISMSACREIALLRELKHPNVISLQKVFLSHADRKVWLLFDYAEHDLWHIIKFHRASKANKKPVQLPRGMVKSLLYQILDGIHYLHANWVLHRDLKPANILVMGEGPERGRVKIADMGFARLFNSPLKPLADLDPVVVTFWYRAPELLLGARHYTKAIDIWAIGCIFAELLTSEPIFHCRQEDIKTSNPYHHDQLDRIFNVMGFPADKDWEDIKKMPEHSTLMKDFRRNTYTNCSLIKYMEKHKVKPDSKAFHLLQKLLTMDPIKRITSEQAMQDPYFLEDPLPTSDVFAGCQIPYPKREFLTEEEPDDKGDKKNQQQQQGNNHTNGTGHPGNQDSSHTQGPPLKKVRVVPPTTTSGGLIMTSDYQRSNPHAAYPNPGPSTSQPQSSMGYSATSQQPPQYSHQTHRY
CDK8/Cyclin C, sequence (P24863 whole entry, further chain): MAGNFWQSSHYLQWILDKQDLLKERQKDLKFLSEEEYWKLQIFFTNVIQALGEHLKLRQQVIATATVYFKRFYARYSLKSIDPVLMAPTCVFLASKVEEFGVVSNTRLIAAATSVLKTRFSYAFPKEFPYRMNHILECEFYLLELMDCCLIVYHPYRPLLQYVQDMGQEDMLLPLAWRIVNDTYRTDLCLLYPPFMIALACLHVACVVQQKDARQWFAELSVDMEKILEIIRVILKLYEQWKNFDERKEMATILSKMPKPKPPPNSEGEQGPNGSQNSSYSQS

As for `Cc1n[nH]c2ncc(C(=O)N3CCC[C@H]3c3ccc(Cl)cc3)cc12`, the Activity in the assay on SW-620 [1] was determined as 12.35%; in the assay on HCT-116 [2], 22.36%; in the assay with SW-620 [3], 11.66%; in the assay on HCT-116 [4], 50.47%; in the assay on SW-620 [5], 54.86%; in the assay on HCT-116 [6], 29.34%. Further, the Activity is listed as 50.77% in the assay on SW-620 [8]; 13.83% in the assay on SW-620 [9]; 27.98% in the assay with HCT-116 [11]; 48.91% in the assay with HCT-116 [12]; 21.76% with HCT-116 [13]; 27.16% with HCT-116 [14]. Moreover, the Activity in the assay with SW-620 [15] is 56.44%; with SW-620 [16], 34.8%; with HCT-116 [17], 24.8%; with HCT-116 [18], 47.08%; in the assay with SW-620 [19], 30.31%; in the assay on SW-620 [20] it was 27.52%. Moreover, the figures for the IC50 in the assay with SW-620 [7] and in the assay with HCT-116 [10] were 52.4 µM and 70.2 µM, respectively.
As for `COc1ccc(C(=O)c2cnc3ccc(F)cc3c2N2CCCCC2)cc1`, the Activity was found to be 17.69% with SW-620 [1]; 23.48% with HCT-116 [2]; 16.94% in the assay on SW-620 [3]; 62.66% in the assay on HCT-116 [4]; 51.89% in the assay with SW-620 [5]; 51.63% with HCT-116 [6]. Moreover, the Activity in the assay with SW-620 [8] was 38.54%; with SW-620 [9] it was 18.15%; in the assay with HCT-116 [21], “Dose-dependent effect”; with HCT-116 [11] it was 38.98%; with HCT-116 [12], 35.24%; with HCT-116 [13], 13.13%. In addition, the Activity amounted to 13.86% in the assay with HCT-116 [14]; 54.27% with SW-620 [15]; 41.68% with SW-620 [16]; 13.92% in the assay with HCT-116 [17]; 47.09% in the assay with HCT-116 [18]; 28.05% in the assay with SW-620 [19]. The Activity with SW-620 [20] turned out to be 25.08%. The concentration for half-maximal inhibition (IC50) (as a rule, the concentration that gives 50% inhibition) on CDK8/Cyclin C is 1.3 µM; in the assay on SW-620 [7], 25 µM; with HCT-116 [10], 4.5 µM.
In the case of `COc1ccc(CNc2ncnc3scc(-c4ccccc4)c23)cc1`, the half-inhibitory concentration (IC50) on CDK8/Cyclin C is 2.9 µM.
